According to the NIST ThermoML archive (doi:10.1016/j.fluid.2016.12.017):

Experiment: mean ionic activity coefficient (dimensionless); mn = molality of the nth substance listed, in mol/kg
Settings: 101 kPa, Liquid, galvanic cell

CCn1cc[n+](C)c1.[Br-] [1-ethyl-3-methylimidazolium bromide] + O
mean ionic activity coefficient
Settings	298.2 K	308.2 K
m1 = 0.01	0.888	0.895
m1 = 0.0199	0.846	0.859
m1 = 0.0397	0.791	0.813
m1 = 0.0592	0.753	0.781
m1 = 0.0785	0.723	0.757
m1 = 0.1001	0.696	0.735
m1 = 0.1995	0.611	0.665
m1 = 0.3996	0.523	0.585
m1 = 0.6004	0.474	0.534
m1 = 0.7996	0.441	0.497
m1 = 1.001	0.417	0.467
m1 = 1.2	0.398	0.442
m1 = 1.4	0.382	0.42
m1 = 1.6	0.367	0.4
m1 = 1.8	0.354	0.382
m1 = 2	0.341	0.366
m1 = 2.2	–	0.351
